In brackets after ≈: the same amount, converted by molar mass. Like-named read-outs stand apart in the source and are kept apart here.
Experiments:
[1] = system: several strains of bacteria; experiment: Kirby-Bauer disc diffusion assay; type: cell-based; settings: bioassay-directed fractionation
Protocol: The crude extract was then fractionated by flash column chromatography, using a 42 mm ID column, silica gel 60 as the stationary phase, and CH2Cl2 as the eluting solvent. Typically, 100-150, 10 mL fractions were collected and assayed for microbial growth inhibition. […] The column fractions, including the active component, were also analyzed by thin-layer chromatography (TLC) using Baker-flex® silica gel IB2-F plates (with fluorescent indicator) and CH2Cl2 as the eluting solvent (see FIG. 1).

[2] = system: Streptococcus mitis; experiment: microbe, parasite or virus in culture; type: cell-based
[3] = system: Corynebacterium pseudodiphthericum; experiment: microbe, parasite or virus in culture; type: cell-based; settings: Corynebacterium pseudodiphtheriticum
[4] = system: Staphylococcus aureus ATCC 25923; experiment: microbe, parasite or virus in culture; type: cell-based; settings: ATCC25923
[5] = system: Enterococcus faecium VRE 14; experiment: microbe, parasite or virus in culture; type: cell-based
[6] = system: methicillin-resistant Staphylococcus aureus; experiment: microbe, parasite or virus in culture; type: cell-based
[7] = system: C. elegans; experiment: motility assay; type: in vivo; design: key to Movement score, 1/1600 / Movement score, 1/800 / Movement score, 1/400 / Movement score, 1/200 / Movement score, 1/100: normal (−); slow (+); very slow (++); not motile/paralyzed (+++); settings: Ive 1 ng/μL in all wells
[8] = system: vancomycin-resistant enterococci; experiment: organism not typed; type: cell-based
[9] = system: M. smegmatis; experiment: MIC assay; type: cell-based; settings: Mycolicibacterium smegmatis; Table 6; read-out: MIC M. smegmatis
[10] = system: Gram-positive bacteria tested; experiment: organism not typed; type: cell-based
[11] = system: Bacillus megaterium; experiment: microbe, parasite or virus in culture; type: cell-based; settings: Priestia megaterium
[12] = system: Listeria monocytogenes; experiment: microbe, parasite or virus in culture; type: cell-based
[13] = system: Streptococcus agalactiae; experiment: microbe, parasite or virus in culture; type: cell-based
[14] = system: Pseudomonas aeruginosa; experiment: microbe, parasite or virus in culture; type: cell-based
[15] = system: Staphylococcus aureus ATCC 29213; experiment: microbe, parasite or virus in culture; type: cell-based; settings: Staphylococcus aureus, ATCC29213
[16] = system: Streptococcus pyogenes; experiment: microbe, parasite or virus in culture; type: cell-based
[17] = system: Mycobacterium fortuitum; experiment: MIC assay; type: cell-based; settings: Mycolicibacterium fortuitum; Table 6; read-out: MIC M. fortuitum
[18] = system: Bacillus anthracis; experiment: microbe, parasite or virus in culture; type: cell-based
[19] = system: Corynebacterium xerosis; experiment: microbe, parasite or virus in culture; type: cell-based
[20] = system: Bacillus cereus; experiment: microbe, parasite or virus in culture; type: cell-based
[21] = system: Corynebacterium diphtheriae Tox−; experiment: microbe, parasite or virus in culture; type: cell-based
[22] = system: Mycobacterium bovis BCG; experiment: microbe, parasite or virus in culture; type: cell-based; settings: Mycobacterium tuberculosis variant bovis BCG
[23] = system: Staphylococcus aureus MRSA MC-1; experiment: microbe, parasite or virus in culture; type: cell-based; settings: Staphylococcus aureus, MRSA
[24] = system: Streptococcus pneumoniae ATCC 49619; experiment: microbe, parasite or virus in culture; type: cell-based; settings: ATCC49619
[25] = system: Gram-negative bacteria tested; experiment: organism not typed; type: cell-based; settings: read-out: MICs
[26] = system: Enterococcus faecalis ATCC 29212; experiment: microbe, parasite or virus in culture; type: cell-based; settings: Enterococcus faecalis, ATCC29212
[27] = system: Staphylococcus aureus MRSA MC-4; experiment: microbe, parasite or virus in culture; type: cell-based
[28] = system: Mycobacterium chelonae; experiment: MIC assay; type: cell-based; settings: Table 6; read-out: MIC M. chelonae
[29] = system: Enterococcus faecium VRE 1; experiment: microbe, parasite or virus in culture; type: cell-based
[30] = system: Bacillus subtilis; experiment: microbe, parasite or virus in culture; type: cell-based
[31] = system: Escherichia coli; experiment: microbe, parasite or virus in culture; type: cell-based
[32] = system: C. elegans L1 larvae; experiment: developmental assay; type: in vivo; design: key to Developmental score, 1/1600 / Developmental score, 1/800 / Developmental score, 1/400 / Developmental score, 1/200 / Developmental score, 1/100: dead (+++); distressed (++); slightly delayed (+); the same as M9-only untreated wells (−); settings: after four days, Ive 1 ng/μL in each well

In the case of `COc1cc(O)cc(/C=C/c2ccccc2)c1` [CL-3, 3-hydroxy-5-methoxystilbene], the growth inhibition [1] is reported as “inhibited the growth”, the MIC [2] is reported as 64 µg/mL (≈ 283 µM) and the MIC [3] is reported as 16 µg/mL (≈ 70.7 µM). For the same compound, the MIC [4] was 32 µg/mL (≈ 141 µM), the MIC [5] was 16 µg/mL (≈ 70.7 µM) and the MIC [6] was 32 µg/mL (≈ 141 µM). The “Movement score, 1/100” value ([7]; dilution 1/100 of stock (10.24 μg/μL; SK-03-92 1.024 μg/μL)) was “+++”, the “Movement score, 1/200” value ([7]; dilution 1/200 of stock (10.24 μg/μL; SK-03-92 1.024 μg/μL)) was “+++” and the “Movement score, 1/400” value ([7]; dilution 1/400 of stock (10.24 μg/μL; SK-03-92 1.024 μg/μL)) was “+”. The “Movement score, 1/800” value ([7]; dilution 1/800 of stock (10.24 μg/μL; SK-03-92 1.024 μg/μL)) was “−”, the “Movement score, 1/1600” value ([7]; dilution 1/1600 of stock (10.24 μg/μL; SK-03-92 1.024 μg/μL), overnight 20° C.) was “−” and the MIC [8] was 32 µg/mL (≈ 141 µM). For the same compound, the MIC [9] was 64 µg/mL (≈ 283 µM), the “growth inhibition of Gram-positive bacteria” value [10] was “inhibit the growth of all Gram-positive bacteria tested” and the MIC [11] was 64 µg/mL (≈ 283 µM). The MIC [12] was 32 µg/mL (≈ 141 µM), the MIC [13] was 32 µg/mL (≈ 141 µM) and the MIC [14] was greater than 128 µg/mL. It also gave an MIC [15] of 32 µg/mL (≈ 141 µM), an MIC ([15]; Table 6, read-out: MIC S. aureus ATCC 29213) of 16 µg/mL (≈ 70.7 µM) and an MIC ([16]; Streptococcus pyogenes) of 16 µg/mL (≈ 70.7 µM). It also gave an MIC S. pyogenes, G+ ([16]; Table 3) of 16 µg/mL (≈ 70.7 µM), an MIC [17] of 16 µg/mL (≈ 70.7 µM) and an MIC [18] of 4 µg/mL (≈ 17.7 µM). It also gave an MIC [19] of 16 µg/mL (≈ 70.7 µM), an MIC ([20]; Bacillus cereus) of 16 µg/mL (≈ 70.7 µM) and an MIC B. cereus, G+ (anthrax surrogate) ([20]; Table 3) of 16 µg/mL (≈ 70.7 µM). For the same compound, the MIC [21] was 32 µg/mL (≈ 141 µM), the MIC ([22]; M bovis BCG, Example 3) was 25.6 µg/mL (≈ 113 µM) and the MIC ([22]; Table 2, Mycobacterium bovis BCG) was 26 µg/mL (≈ 115 µM). For the same compound, the MIC [23] was 32 µg/mL (≈ 141 µM), the MIC ([23]; read-out: MIC S. aureus MC-1) was 16 µg/mL (≈ 70.7 µM) and the MIC [24] was 8 µg/mL (≈ 35.4 µM). It also gave an MIC [25] greater than 128 µg/mL, an MIC [26] of 16 µg/mL (≈ 70.7 µM) and an MIC [27] of 32 µg/mL (≈ 141 µM). It also gave an MIC [28] of 16 µg/mL (≈ 70.7 µM), an MIC ([29]; Enterococcus faecium, VRE) of 16 µg/mL (≈ 70.7 µM) and an MIC E. faecium VRE 1, G+ ([29]; Table 3) of 32 µg/mL (≈ 141 µM). The MIC [30] was 16 µg/mL (≈ 70.7 µM), the MIC [31] was greater than 128 µg/mL and the “Developmental score, 1/100” value ([32]; dilution 1/100) was “+++”. The “Developmental score, 1/200” value ([32]; dilution 1/200) was “+”, the “Developmental score, 1/400” value ([32]; dilution 1/400) was “−” and the “Developmental score, 1/800” value ([32]; dilution 1/800) was “−”. For the same compound, the “Developmental score, 1/1600” value ([32]; dilution 1/1600) was “−”.

From patent US8530512B2, “Broad spectrum gram-positive antimicrobials and anthelmintics with efficacy against drug-resistant strains and Mycobacterium species” (priority 2004, dated 2013)
